Assay results as given in patent US20250249056A1, “CANCER THERAPIES COMPRISING A NUCLEAR EXPORT INHIBITOR AND AN ONCOLYTIC VIRUS” (priority 2022, published 2025).

Test system: Colo205 cells
Type: cell-based, human
Settings: selinexor-treated nucleus vs MYXV + selinexor-treated nucleus

O=C(/C=C\n1cnc(-c2cc(C(F)(F)F)cc(C(F)(F)F)c2)n1)NNc1cnccn1 [selinexor]
Differential protein expression B2CWG0 m053R: 0.01 | Differential protein expression B2CWG4 m057L: 0.01 | Differential protein expression B2CWG5 m058R: 0.176 | Differential protein expression B2CWG7 m060R: 0.01 | Differential protein expression B2CWG8 m061R: 0.01 | Differential protein expression B2CWH0: 0.069 | Differential protein expression B2CWH1 m064R: 0.211 | Differential protein expression B2CWH3 m066R: 0.01 | Differential protein expression B2CWH6 m069L: 0.01 | Differential protein expression B2CWH8: 0.232 | Differential protein expression B2CWI0: 0.021 | Differential protein expression B2CWI3 m076R: 0.096 | Differential protein expression B2CWI4 m077L: 0.01 | Differential protein expression B2CWI6 m079R: 0.131 | Differential protein expression B2CWI7 m080R: 0.036 | Differential protein expression B2CWJ3: 0.01 | Differential protein expression B2CWJ5: 0.01 | Differential protein expression B2CWJ9 m092L: 0.16 | Differential protein expression B2CWK2 m095L: 0.029 | Differential protein expression B2CWL4: 0.01 | Differential protein expression B2CWL5 m108R: 0.088 | Differential protein expression B2CWL8 m111R: 0.101 | Differential protein expression B2CWM1: 0.083 | Differential protein expression B2CWM2 m115L: 0.077 | Differential protein expression B2CWP6 m139R: 0.04 | Differential protein expression B2CWP9 m142R: 0.01 | Differential protein expression B2CWQ5 m149R: 0.01 | Differential protein expression B2CWQ7: 0.229 | Differential protein expression B2CWR1 m156R: 0.022 | Differential protein expression D2WM37 m012L: 0.058 | Differential protein expression D2WMA0 m030L: 0.057 | Differential protein expression D2WN05 m078R: 0.021 | Differential protein expression D2WN26 m090L: 0.097 | Differential protein expression D2WN93 m151R: 0.255 | Differential protein expression D3W0C4 m130R: 0.01 | Differential protein expression E2CZH7 m088L: 0.01 | Differential protein expression E2CZJ6 m107L: 0.01 | Differential protein expression E2CZJ9 m110L: 0.01 | Differential protein expression E2CZK3 m114R: 0.083 | Differential protein expression E2CZL2 m123R: 0.277 | Differential protein expression E2CZL6 m127L: 0.025 | Differential protein expression E2CZM0 m131R: 0.01 | Differential protein expression E2CZM2 m133R: 0.048 | Differential protein expression E2CZP2 m001R: 0.037 | Differential protein expression E2CZQ3 m009L: 0.132 | Differential protein expression E2CZQ9 m014L: 0.092 | Differential protein expression E2CZR0 m015L: 0.04 | Differential protein expression E2CZR6 m021L: 0.133 | Differential protein expression E2CZV0 m055R: 0.052 | Differential protein expression E2CZV1 m056R: 0.01 | Differential protein expression E2CZV4 m059R: 0.01 | Differential protein expression E2CZW3 m068R: 0.052 | Differential protein expression E2CZW7 m072L: 0.211 | Differential protein expression E2CZY1 m086L: 0.01 | Differential protein expression K4JKC2 m073R: 0.021 | Differential protein expression O00584 RNASET2: 0.01 | Differential protein expression O10625 M-T1: 0.037 | Differential protein expression O55698 M-T4: 0.122 | Differential protein expression O76013 KRT36: 0.01 | Differential protein expression O76015 KRT38: 0.01 | Differential protein expression P01100 FOS: 0.211 | Differential protein expression P05090 APOD: 0.01 | Differential protein expression P07942 LAMB1: 0.128 | Differential protein expression P10909 CLU: 0.01 | Differential protein expression P14209 CD99: 0.01 | Differential protein expression P17066 HSPA6: 0.01 | Differential protein expression P17516 AKR1C4: 0.01 | Differential protein expression P50583 NUDT2: 0.01 | Differential protein expression P68544 PAPS: 0.044 | Differential protein expression P68550: 0.168 | Differential protein expression Q5BJH7 YIF1B: 0.161 | Differential protein expression Q5VVJ2 MYSM1: 0.01 | Differential protein expression Q6SJ93 FAM111B: 0.253 | Differential protein expression Q8IY95 TMEM192: 0.01 | Differential protein expression Q8TB72 PUM2: 0.01 | Differential protein expression Q8TDQ7 GNPDA2: 0.01 | Differential protein expression Q9P000 COMMD9: 0.213 | Differential protein expression Q9PX24 m007L: 0.087 | Differential protein expression Q9PX36 m006L: 0.035 | Differential protein expression Q9PXA3 m004L: 0.122 | Differential protein expression Q9Q8F0 m154L: 0.125 | Differential protein expression Q9Q8F9 m144R: 0.179 | Differential protein expression Q9Q8G2 m140R: 0.165 | Differential protein expression Q9Q8G4 m137R: 0.01 | Differential protein expression Q9Q8G6 m135R: 0.021 | Differential protein expression Q9Q8H2 m129R: 0.119 | Differential protein expression Q9Q8H9 m122R: 0.022 | Differential protein expression Q9Q8I1 m120L: 0.024 | Differential protein expression Q9Q8I4 m117L: 0.027 | Differential protein expression Q9Q8I6 m114R: 0.083 | Differential protein expression Q9Q8J1 m109L: 0.032 | Differential protein expression Q9Q8J4 m106L: 0.01 | Differential protein expression Q9Q8J5 m105L: 0.01 | Differential protein expression Q9Q8J9 m101L: 0.01 | Differential protein expression Q9Q8K1 m099L: 0.03 | Differential protein expression Q9Q8K3 m097R: 0.01 | Differential protein expression Q9Q8K6 m094R: 0.01 | Differential protein expression Q9Q8K7 m093L: 0.039 | Differential protein expression Q9Q8L1 m089L: 0.01 | Differential protein expression Q9Q8L3 m087L: 0.069 | Differential protein expression Q9Q8L8 m082R: 0.037 | Differential protein expression Q9Q8L9 VETFS: 0.087 | Differential protein expression Q9Q8M5 m075R: 0.01 | Differential protein expression Q9Q8M6 m074R: 0.047 | Differential protein expression Q9Q8M9 m071L: 0.232 | Differential protein expression Q9Q8N0 m070R: 0.01 | Differential protein expression Q9Q8N5: 0.069 | Differential protein expression Q9Q8N8 m058R: 0.176 | Differential protein expression Q9Q8P4 m052L: 0.029 | Differential protein expression Q9Q8P7 m049R: 0.051 | Differential protein expression Q9Q8Q1: 0.059 | Differential protein expression Q9Q8Q3 m043L: 0.067 | Differential protein expression Q9Q8Q6 m040L: 0.011 | Differential protein expression Q9Q8Q8 m038L: 0.023 | Differential protein expression Q9Q8R0 m036L: 0.099 | Differential protein expression Q9Q8R4 m032R: 0.01 | Differential protein expression Q9Q8R5 m031R: 0.011 | Differential protein expression Q9Q8S0 m026R: 0.039 | Differential protein expression Q9Q8S2 m020L: 0.191 | Differential protein expression Q9Q8S8 m013L: 0.172 | Differential protein expression Q9Q817 m113R: 0.037 | Differential protein expression Q9UHX3 ADGRE2: 0.01 | Differential protein expression Q9UJ68 MSRA: 0.202 | Differential protein expression Q9YQ03 mt6: 0.031 | Differential protein expression Q68DK2 ZFYVE26: 0.092 | Differential protein expression Q77P93 m003.2L: 0.049 | Differential protein expression Q77PB1 m003.1L: 0.145 | Differential protein expression Q86WV6 STING1: 0.01 | Differential protein expression Q96HD1 CRELD1: 0.01 | Differential protein expression Q96LJ7 DHRS1: 0.01 | Differential protein expression Q12913 PTPRJ: 0.01 | Differential protein expression Q16204 CCDC6: 0.249 | Differential protein expression Q58719 SFT2D3: 0.01 | Differential protein expression Q83604 MF13: 0.058 | Differential protein expression Q83730 m005R: 0.01 | Differential protein expression Q85296: 0.124 | Differential protein expression Q85297: 0.01
